Patent US20140107104A1, “COMBINATION MEDICINE FOR TREATMENT OF DEPRESSION” (priority 2011, published 2014)
Each block holds one compound with its values, some of them ahead of it.

What was measured:
dentate gyrus = assay: Microarray analysis of genes expressed in the dentate gyrus; type: in vivo, mice; settings: for expression of depression-related gene group: SKF81297 3 mg/(kg day) i.p. days 10-14; for mRNA expression level Alox8: control C 2.02; for mRNA expression level Drd4: control C 29.28; for mRNA expression level Prir (second line): control C 36.03; for mRNA expression level Drd1a: control C 46.26; for mRNA expression level Prir (first line): control C 48.03; for mRNA expression level S100a4: control C 337.31; for mRNA expression level Anxa2: control C 483.27; for mRNA expression level Rgs4 (second line): control C 687.50; for mRNA expression level Htr4: control C 723.76; for mRNA expression level Furin: control C 742.58; for mRNA expression level Gfap (third line): control C 1308.81; for mRNA expression level Bdnf: control C 1312.91; for mRNA expression level Rgs4 (first line): control C 2347.43; for mRNA expression level Gfap (second line): control C 3008.11
Description: Then, microarray analysis of genes expressed in the dentate gyrus of these mice was performed.
The microarray analysis was performed as follows. Total RNA was isolated from the hippocampus of each mouse by TRIzol method (Invitrogen, Carlsbad, Calif.) and then purified using an RNeasy column (Qiagen, Valencia, Calif.). Double strand cDNA was synthesized from the total RNA, and in vitro transcription reaction was performed using biotin-labeled RNA prepared from the cDNA. The labeled RNA was hybridized with Mouse Genome 430 2.0 Array (Affymetrix, Santa Clara, Calif.) comprising specific probe sets, and washing was performed according to the manufacturer's recommendations. The hybridized probe array was stained with streptoavidin conjugate phycoerythrin, and each GeneChip was scanned using Affymetrix GeneChip scanner 3000 (GCS3000). GeneChip analysis was performed using Microarray Analysis Suite version 5.0.

dopamine D1 receptor = assay: Western blotting of dopamine D1 receptor protein in hippocampal dentate gyrus; type: in vivo, mice; settings: fluoxetine pellet 14 days
Text: The samples isolated from the hippocampal dentate gyrus of mice treated with a fluoxetine pellet or a control pellet were electrophoresed using acrylamide gel, and separated proteins were electrically transferred to a nitrocellulose membrane. The D1 receptor protein transferred to the membrane was immunologically detected using a D1 receptor antibody. In the immunological detection, Odyssey near-infrared fluorescent imaging system (LI-COR Biosciences, Lincoln, Nebr.) was used.

[1] = system: dopamine D1 receptor signaling; assay: Dopamine D1 receptor signaling in slices of the hippocampal dentate gyrus (phosphorylation of DARPP-32 and ERK); type: cell-based, mice
Description: Harvested mouse brain was kept cool in ice-cooled and oxygenated Krebs-HCO3^− buffer, and using vibratome VT1000S (Leica Microsystems, Nussloch, Germany), 350-micrometer-thick continuous coronal slices were prepared. From the coronal slices, slices of the hippocampal dentate gyrus were cut out and used for experiments. Each slice of the hippocampal dentate gyrus was preincubated in 2 mL of Krebs-HCO3^− buffer for 60 minutes and treated with a dopamine D1 receptor agonist, namely SKF81297, and dopamine D1 receptor signaling was analyzed. As an indicator of dopamine D1 receptor signaling, phosphorylation of DARPP-32 (Thr34, PKA site) and of ERK was analyzed. The phosphorylation was analyzed by western blotting with a phosphorylation state-specific antibody.

[2] = system: hippocampal dentate gyrus; assay: RT-PCR analysis of mRNA expression in hippocampal dentate gyrus after antidepressant pellet; type: in vivo, mice; settings: subcutaneously implanted pellet, 14 days, compared to placebo pellet
Description: The method of subcutaneously implanting each pellet was as follows: a small incision about 5 mm was made in the neck skin of each mouse, a pellet was inserted through the incision to a depth of about 2 cm with tweezers for indwelling, and the skin was sutured.
Total RNA was isolated from the hippocampal dentate gyrus of the mice treated with the fluoxetine pellet or the control pellet. First strand cDNA was prepared from 1 ug of DNaseI-treated total RNA using a reverse transcriptase QuantiTect (registered trademark, Qiagen, Valencia, Calif.). Gene expression was quantified using SYBR green (2×SYBR Green PCR Master Mix; Qiagen, Valencia, Calif.) according to the manufacturer's directions. Quantitative RT-PCR was performed using LightCycler (registered trademark) 480II real-time PCR detection system (Roche, Mannheim, Germany) in the following conditions (95° C.: 5 minutes; and then 40 cycles of 95° C.: 10 seconds, 60° C.: 30 seconds, and 65° C.: 1 minute). Beta-actin was amplified in all the samples for standardization of expression data. Whether or not the DNA region of each targeted gene was amplified was confirmed by melting curve analysis after RT-PCR (95° C.: 1 minute, 55° C.: 30 seconds, 95° C.: 30 seconds). The Ct value used was the average of 2 RT-PCR results.
Experiments were conducted in the same manner as in “1.

dopamine D1 receptor-GFP = assay: Immunohistochemical analysis of dentate gyrus of dopamine D1 receptor-GFP mice; type: in vivo; settings: fluoxetine pellet 14 days vs placebo pellet
Description: Each mouse was anesthetized with sodium pentobarbital and perfused with 4% paraformaldehyde (PFA) in 0.1 M phosphate buffered saline (PBS). The brain was removed and subjected to immersion fixation in the same fixing fluid at 4° C. for another 2 hours and […] frontal-plane sections were prepared using a cryostat (Leica). The sections were washed with tris buffered saline (pH 7.4) containing Tween 20. For immunostaining, frozen sections were incubated with the following primary antibody: rabbit anti-calbindin D28K polyclonal antibody (1:3000 dilution; SWANT) at 4° C. for 18 hours. The anti-calbindin D28K polyclonal antibody is a maturation marker for granule cells. For detection of antigen localization, the sections were incubated with Alexa Fluor (594)-conjugate goat anti-rabbit IgG (1:400 dilution; Invitrogen) at 4° C. for 2 hours. Further, for nuclear staining, the sections were stained with DAPI. Fluorescent signals were each analyzed using a confocal laser scanning microscope (LSM5 Pascal, Zeiss).

[3] = fluoxetine pellet 15 mg/(kg day)x14 days

SMILES: Br.Oc1cc2c(c(Cl)c1O)CCNC[C@@H]2c1ccccc1 [SKF81297, R-(+)-6-chloro-7,8-dihydroxy-1-phenyl-2,3,4,5-tetrahydro-1H-3-benzazepine hydrobromide]
expression of depression-related gene group (dentate gyrus; [3]): neither the SKF81297 sole administration nor the fluoxetine sole administration affected the expression of genes | mRNA expression level S100a10 (dentate gyrus; fluoxetine pellet 15 mg/(kg day)x14 days, SKF81297 3 mg/(kg day) i.p.x5 days, control C 461.56): 469.21 | mRNA expression level Alox8 (dentate gyrus; same regimen): 2.12 | mRNA expression level Drd4 (dentate gyrus; same regimen): 30.92 | mRNA expression level Prir (second line) (dentate gyrus; same regimen): 160.90 | mRNA expression level Drd1a (dentate gyrus; same regimen): 43.87 | mRNA expression level Prir (first line) (dentate gyrus; same regimen): 61.94 | mRNA expression level S100a4 (dentate gyrus; same regimen): 389.62 | mRNA expression level Anxa2 (dentate gyrus; same regimen): 684.27 | mRNA expression level Rgs4 (second line) (dentate gyrus; same regimen): 1053.99 | mRNA expression level Htr4 (dentate gyrus; same regimen): 852.76 | mRNA expression level Furin (dentate gyrus; same regimen): 837.03 | mRNA expression level Gfap (third line) (dentate gyrus; same regimen): 1962.44 | mRNA expression level Bdnf (dentate gyrus; same regimen): 1516.05 | mRNA expression level Rgs4 (first line) (dentate gyrus; same regimen): 2742.21 | mRNA expression level Gfap (second line) (dentate gyrus; same regimen): 4062.15 | mRNA expression level Gfap (first line) (dentate gyrus; same regimen, control C […]): 140.79

SMILES: CNCCC(Oc1ccc(C(F)(F)F)cc1)c1ccccc1 (stereo not shown) [fluoxetine]
protein expression of dopamine D1 receptor as compared to placebo pellet (dopamine D1 receptor): 4 times | expression of depression-related gene group (dentate gyrus; [3]): neither the SKF81297 sole administration nor the fluoxetine sole administration affected the expression of genes | mRNA expression level Alox8 (dentate gyrus; same regimen): 2.11 | mRNA expression level Drd4 (dentate gyrus; same regimen): 35.57 | mRNA expression level Prir (second line) (dentate gyrus; same regimen): 84.69 | mRNA expression level Drd1a (dentate gyrus; same regimen): 114.21 | mRNA expression level Prir (first line) (dentate gyrus; same regimen): 48.69 | mRNA expression level S100a4 (dentate gyrus; same regimen): 353.74 | mRNA expression level Anxa2 (dentate gyrus; same regimen): 568.07 | mRNA expression level Rgs4 (second line) (dentate gyrus; same regimen): 1215.07 | mRNA expression level Htr4 (dentate gyrus; same regimen): 903.85 | mRNA expression level Furin (dentate gyrus; same regimen): 799.17 | mRNA expression level Gfap (third line) (dentate gyrus; same regimen): 1757.42 | mRNA expression level Bdnf (dentate gyrus; same regimen): 1495.90 | mRNA expression level Rgs4 (first line) (dentate gyrus; same regimen): 3659.58 | mRNA expression level Gfap (second line) (dentate gyrus; same regimen): 3185.26 | dopamine D1 receptor signaling ([1]; fluoxetine-induced dematured dentate gyrus slices): doubled | phosphorylation of ERK induced by SKF81297 ([1]; slices from mice with fluoxetine pellet 14 days vs placebo pellet): increased | phosphorylation of DARPP-32 (Thr34, PKA site) induced by SKF81297 ([1]; slices from mice with fluoxetine pellet 14 days vs placebo pellet, SKF81297 1 uM or 10 uM): increased | mRNA expression of calbindin [2]: less mRNA expression | mRNA expression of desmoplakin [2]: less mRNA expression | mRNA expression of dopamine D1 receptor [2]: increase in the mRNA expression | mRNA expression of interleukin-1 receptor [2]: less mRNA expression | mRNA expression of tryptophan 2,3-dioxygenase [2]: less mRNA expression | expression of calbindin in granule cells (dopamine D1 receptor-GFP): lowered | expression of dopamine D1 receptor-GFP in granule cells (dopamine D1 receptor-GFP): significantly increased expression

mRNA expression of dopamine D1 receptor [2]: increase in the mRNA expression | mRNA expression of interleukin-1 receptor [2]: less mRNA expression | mRNA expression of tryptophan 2,3-dioxygenase [2]: less mRNA expression
SMILES: CN(C)CCCN1c2ccccc2CCc2ccccc21 [imipramine]
mRNA expression of BDNF [2]: increased | mRNA expression of calbindin [2]: less mRNA expression | mRNA expression of desmoplakin [2]: less mRNA expression
